Legend:
[1] = system: KB-CR2000 (platin resistant) tumor; assay: In vivo activity against platinum resistant tumors; parameters: species or system mice; conditions: Conjugate 5 0.5 μmol/kg SIW two weeks; EC1456 2.0 μmol/kg BIW two weeks; n=4
Procedure: (§1) Mice were maintained and tumor volumes were measures according to Method 3.
KB-CR2000 (platin resistant) tumor cells were inoculated subcutaneously at the right flank of each mouse. Mice were dosed through the lateral tail vein under sterile conditions in a volume of […] of phosphate-buffered saline (PBS).

ST070 ovarian PDX tumors = assay: In vivo activity against ovarian tumors; parameters: species or system mice
Procedure: as §1
Primary human Ovarian model ST070 fragments (2-4 mm in diameter) were inoculated subcutaneously at the right flank of each mouse. Mice were randomized into experimental groups of 7 mice each and test articles were injected through the lateral tail vein under sterile conditions in a volume of […] of phosphate-buffered saline (PBS).

IGROV1 cells = assay: Clonogenic assay, IGROV1; assay type: cell-based, human; conditions: 2 hour exposure, 9-day chase
Procedure: IGROV1 cells seeded in 6-well plates (1000 cells/well) were exposed for 2 hours to Conjugate 5 at 1, 10, and 100 nM and followed by a 9-day chase in drug-free medium. Afterwards, the cells were washed with PBS and fixed for 5 minutes in a 3:1 methanol:acetic acid solution. The cells were then stained with 0.5% crystal violet/methanol solution for 15 minutes and washed with tap water. After a drying step, the colonies were photographed and counted using the ImageJ software.
Afterwards, the cells were washed with PBS and fixed for 5 minutes in a 3:1 methanol:acetic acid solution. The cells were then stained with 0.5% crystal violet/methanol solution for 15 minutes and washed with tap water. After a drying step, the colonies were photographed and counted using the ImageJ software.

[2] = system: intraperitoneal ID8-C115 tumor; assay: Conjugate 5 plus anti-CTLA-4 combination study, survival; assay type: in vivo, mice; conditions: Conjugate 5 i.v. 0.1 μmol/kg BIW×6 doses; EC1456 i.v. 2 μmol/kg BIW×6 doses, from day 7; anti-CTLA-4 i.p. 250 μg/dose BIW×5 doses from day 11; untreated ~46 days; 5 animals
Procedure: To test the effect of Conjugate 5 alone and in combination with anti-CTLA-4 antibody, ID8-C115 tumor cells (5×10^6 cells per animal in 1% syngeneic mouse serum/folate-deficient RPMI1640 medium) were inoculated intraperitoneally 13 days post the date of arrival and start of the folate deficient diet. […] The anti-CTLA-4 antibody dosing solution was prepared by diluting the stock solution (BioXcell, Clone UC10-4F10-11) to 1.25 mg/mL in PBS, pH 7.4. Anti-CTLA-4 (250 μg/dose) was i.p. administered BIW for a total of 5 doses starting 11 days after the tumor implant. […] Mice were weighed 3 times/week and assessed for any clinical sign of swollen bellies indicative of ascites formation and for the evidence of toxicity such as respiratory distress, mobility, weight loss, diarrhea, hunched posture, and failure to eat. Once the animals developed ascites, they were monitored daily and euthanized when ascites became severe (rounded and walking on tip toes). Healthy animals from the same cohort of mice were used as controls for normal weight gain.

[3] = system: 4T1p tumor (FRα-negative); assay: Single-agent activity in vivo, 4T1p mammary tumors; parameters: species or system mice; conditions: 0.2 μmol/kg i.v., BIW×3 doses
Description: Female Balb/c mice (4T1p, 4T1-C12) were purchased from Envigo (Indianapolis, Ind.) and used when they reached 6-8 weeks of age. The mice were fed a folate-deficient diet (TestDiet, St. Louis, Mo.) on the day of arrival.
Solid tumors in Balb/c mice were generated by subcutaneous implantation of cultured cells at 5×10^5 (4T1p) and 2×10^6 (4T1-C12) per animal in the mammary region.
Starting on day 0, mice with mammary 4T1p (˜78.3±12.1 mm^3) and 4T1-C12 (˜70.1±14.1 mm^3) were scheduled to receive Conjugate 5 at 200 nmol/kg, biweekly for two weeks. 4T1p tumor bearing mice received a total of 3 doses only and 4T1-C12 tumor bearing mice received a total of 4 doses as planned. Mice were weighed and measured for tumor size 3 times a week. The tumor volumes were calculated by the following formula: V=0.5×a×b^2, where a is the longest axis across the tumor, and b is the shorter axis perpendicular to a. The animals were euthanized when the tumor volume reached ˜1500 mm^3. Mice were also monitored closely for the evidence of toxicity such as respiratory distress, mobility, weight loss, diarrhea, hunched posture, and failure to eat. The last Conjugate 5 dose in the 4T1p tumor-bearing mice was skipped due to weight loss.

4T1 TAMs = assay: Activity against 4T1 TAMs in vivo (FACS of tumors); parameters: species or system rats
Description: Female Foxn1^nu nude rats (Harlan, Inc., Indianapolis, Ind.) on a folate-deficient diet were subcutaneously implanted with 1×10^6 4 T1 tumor cells in the mammary region. When the tumors reached ˜1088 mm^3, the animals (n=3) were intravenously dosed with nothing (Control), 254 nmol/kg of Conjugate 5, 254 nmol/kg of Conjugate 5 plus 127 μmol/kg of EC0923, or 127 μmol/kg of EC0923. Four days later, the entire tumors were harvested, enzymatically digested, and subjected to FACS analysis. The tumor cell suspensions were stained for macrophage markers (CD163, CD11b), cell viability (propidium iodide), and late and early apoptosis (Annexin V).

C=C1C[C@H]2C=Nc3cc(OCCCCCOc4cc(N)c(C(=O)N5CC(=C)C[C@H]5C5OCCN5C(=O)OCC(C)(C)SSCCC(=O)NCCNC(=O)CCOCCOCCOCCOCCNC(=O)CCN5C(=O)CC(SC[C@H](NC(=O)[C@H](CC(=O)O)NC(=O)[C@H](CC(=O)O)NC(=O)[C@H](CCCNC(=N)N)NC(=O)[C@H](CC(=O)O)NC(=O)CC[C@H](NC(=O)c6ccc(NCc7cnc8nc(N)[nH]c(=O)c8n7)cc6)C(=O)O)C(=O)O)C5=O)cc4OC)c(OC)cc3C(=O)N2C1 (stereo partly shown) [Conjugate 5]
cure (number of mice) [1]: 4 | cure (number of mice) (ST070 ovarian PDX tumors; 0.5 μmol/kg SIW for two weeks, n=7): 7 | ovarian PDX tumor size compared to untreated control (ST070 ovarian PDX tumors; Conjugate 5 0.5 μmol/kg SIW, EC1456 4.0 μmol/kg SIW, paclitaxel 15 mg/kg SIW, two weeks): decreased ovarian PDX tumor size | clonogenic activity (IGROV1 cells; 1, 10, 100 nM): potent activity at all concentrations | clonogenic activity, comparison Conjugate 5 and EC1456 (IGROV1 cells; 1, 10, 100, 1000 nM): potent activity at all concentrations tested | clonogenic anti-tumor activity in the presence of excess folic acid (IGROV1 cells; 1 and 10 nM, excess folic acid): significantly reduced | median survival time [2]: ~77 days post tumor implant | body weight [3]: significant weight loss | complete responders [3]: no complete responders | tumor sensitivity / tumor growth [3]: partial sensitivity | anti-TAM activity in presence of 500-fold excess of EC0923 (4T1 TAMs; 254 nmol/kg Conjugate 5 plus 127 μmol/kg EC0923, single i.v. dose): not blocked | effect against FR− cell populations including CD163-CD11b+ 4T1 TAMs and 4T1 tumor cells (4T1 TAMs; 254 nmol/kg, single i.v. dose): no effect | effect on CD163+CD11b+ TAM population in 4T1 tumors (4T1 TAMs; single i.v. administration, Conjugate 5 254 nmol/kg, EC0923 127 μmol/kg, tumors harvested four days later, n=3): significantly decrease
